Test results as given in patent US20240238423A9, “TETRAHYDROISOQUINOLINE HETEROBIFUNCTIONAL BCL-XL DEGRADERS” (Treeline Biosciences, Inc., priority 2022, published 2024).
Like-named read-outs stand apart in the source and are kept apart here.

Biological target: T1, Human BCL-XL protein (N-terminal HiBiT tagged BCL-XL in HT1080 cells) (Homo sapiens, UniProt Q07817)
T1 construct: expressed in transfected cells; host or cells: HT-1080 (ATCC CCL-121), stably transduced with lentivirus pLV-UBC-N-HiBiT-BCL-XL-PGK-puro and selected with puromycin
Experiment: HiBiT based degradation assay
Assay type: cell-based
Settings: HT1080 cells expressing HiBiT-BCL-XL; for Ymin (24 h) / Ymin (6 h): BCL-XL degradation normalized with DMSO control; for DC50: BCL-XL degradation
Summary of the method: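 This HiBiT degradation assay measured loss of BCL-XL in HT1080 cells that stably express an N-terminal HiBiT-BCL-XL fusion delivered by lentivirus. Cells were added to compound-spotted 384-well plates, and luminescence was read on a PHERAstar FSX reader. Signal was expressed relative to DMSO controls, curves were fitted by four-parameter logistic regression, and for hook-shaped curves the Ymin point served as the bottom plateau when calculating EC50.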

T1 sequence (Q07817 whole entry): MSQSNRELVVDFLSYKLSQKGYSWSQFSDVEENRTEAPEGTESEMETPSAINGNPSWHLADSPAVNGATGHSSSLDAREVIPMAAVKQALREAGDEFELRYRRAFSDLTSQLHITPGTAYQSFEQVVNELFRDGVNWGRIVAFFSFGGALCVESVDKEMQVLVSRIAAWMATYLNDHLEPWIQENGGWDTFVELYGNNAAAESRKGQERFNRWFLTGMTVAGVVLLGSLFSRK

Ymin (24 h)	DC50 (24 h, read-out: EC50 (24 h))	Ymin (6 h)	DC50 (6 h, read-out: EC50 (6 h))	SMILES
A (Ymin < 50%)	< 100 nM			Cc1c(O[C@H]2CC[C@H](CCCN3CCC(Oc4cccc5c(C6CCC(=O)NC6=O)nn(C)c45)CC3)CC2)cccc1-c1ccc(N2CCc3cccc(C(=O)Nc4nc5ccccc5s4)c3C2)nc1C(=O)O (stereo partly drawn) [Compound 338a, 6-(8-(benzo[d]thiazol-2-ylcarbamoyl)-3,4-dihydroisoquinolin-2(1H)-yl)-3-(3-(((1s,4r)-4-(3-(4-((3-(2,6-dioxopiperidin-3-yl)-1-methyl-1H-indazol-7-yl)oxy)piperidin-1-yl)propyl)cyclohexyl)oxy)-2-methylphenyl)picolinic acid]
B (50% ≤ Ymin < 70%)	< 100 nM	B (50% ≤ Ymin < 70%)	< 100 nM	Cc1c(OCCOC2CCN(CC(=O)Nc3ccc4c(C5CCC(=O)NC5=O)nn(C)c4c3)CC2)cccc1-c1ccc(N2CCc3cccc(C(=O)Nc4nc5ccccc5s4)c3C2)nc1C(=O)O (stereo not drawn) [Compound 238, 6-(8-(benzo[d]thiazol-2-ylcarbamoyl)-3,4-dihydroisoquinolin-2(1H)-yl)-3-(3-(2-((1-(2-((3-(2,6-dioxopiperidin-3-yl)-1-methyl-1H-indazol-6-yl)amino)-2-oxoethyl)piperidin-4-yl)oxy)ethoxy)-2-methylphenyl)picolinic acid]
B (50% ≤ Ymin < 70%)	< 100 nM			Cc1c(OCCC(F)(F)C2CCN(CC(=O)Nc3ccc4c(C5CCC(=O)NC5=O)nn(C)c4c3)CC2)cccc1-c1ccc(N2CCc3cccc(C(=O)Nc4nc5ccccc5s4)c3C2)nc1C(=O)O (stereo not drawn) [Compound 229, 6-(8-(benzo[d]thiazol-2-ylcarbamoyl)-3,4-dihydroisoquinolin-2(1H)-yl)-3-(3-(3-(1-(2-((3-(2,6-dioxopiperidin-3-yl)-1-methyl-1H-indazol-6-yl)amino)-2-oxoethyl)piperidin-4-yl)-3,3-difluoropropoxy)-2-methylphenyl)picolinic acid]
A (Ymin < 50%)	< 100 nM			Cc1c(O[C@H]2CC[C@H](CCC[C@H](C)N3CCN(c4ccc5c(C6CCC(=O)NC6=O)nn(C)c5c4)CC3)CC2)cccc1-c1ccc(N2CCc3cccc(C(=O)Nc4nc5ccccc5s4)c3C2)nc1C(=O)O (single isomer, unassigned) [Compound 333a]
		B (50% ≤ Ymin < 70%)	< 100 nM	Cc1c(Oc2ccc(CCC(=O)Nc3ccc(C4CCC(=O)NC4=O)cc3)cc2)cccc1-c1ccc(N2CCc3cccc(C(=O)Nc4nc5ccccc5s4)c3C2)nc1C(=O)O (stereo not drawn) [Compound 102, 6-[8-(1,3-benzothiazol-2-ylcarbamoyl)-3,4-dihydro-1H-isoquinolin-2-yl]-3-[3-[4-[3-[4-(2,6-dioxo-3-piperidyl)anilino]-3-oxo-propyl]phenoxy]-2-methyl-phenyl]pyridine-2-carboxylic acid]
B (50% ≤ Ymin < 70%)	100 to 1000 nM			Cc1c(O[C@H]2CC[C@H](CC(F)(F)C(=O)N3CCN(c4cccc5c(C6CCC(=O)NC6=O)nn(C)c45)CC3)CC2)cccc1-c1ccc(N2CCc3cccc(C(=O)Nc4nc5ccccc5s4)c3C2)nc1C(=O)O (stereo partly drawn) [Compound 171a, 6-(8-(benzo[d]thiazol-2-ylcarbamoyl)-3,4-dihydroisoquinolin-2(1H)-yl)-3-(3-(((1r,4r)-4-(3-(4-(3-(2,6-dioxopiperidin-3-yl)-1-methyl-1H-indazol-7-yl)piperazin-1-yl)-2,2-difluoro-3-oxopropyl)cyclohexyl)oxy)-2-methylphenyl)picolinic acid]
A (Ymin < 50%)	< 100 nM			Cc1c(O[C@H]2CC[C@H](CCCC(C)N3CCN(c4cccc5c(C6CCC(=O)NC6=O)nn(C)c45)CC3)CC2)cccc1-c1ccc(N2CCc3cccc(C(=O)Nc4nc5ccccc5s4)c3C2)nc1C(=O)O (single isomer, unassigned) [Compound 349a]
		B (50% ≤ Ymin < 70%)	< 100 nM	Cc1c(-c2ccc(N3CCc4cccc(C(=O)Nc5nc6ccccc6s5)c4C3)nc2C(=O)NCC(=O)Nc2ccc3c(C4CCC(=O)NC4=O)nn(C)c3c2)cnn1CC12CC3CC(CC(C3)C1)C2 [Compound 115, 2-(5-(1-((1R,3S)-adamantan-1-ylmethyl)-5-methyl-1H-pyrazol-4-yl)-6-((2-((3-(2,6-dioxopiperidin-3-yl)-1-methyl-1H-indazol-6-yl)amino)-2-oxoethyl)carbamoyl)pyridin-2-yl)-N-(benzo[d]thiazol-2-yl)-1,2,3,4-tetrahydroisoquinoline-8-carboxamide]
A (Ymin < 50%)	< 100 nM			Cc1c(O[C@H]2CC[C@H](CCCN3CCN(c4ccc5c(N6CCC(=O)NC6=O)nn(C)c5c4)CC3)CC2)cccc1-c1ccc(N2CCc3cccc(C(=O)Nc4nc5ccccc5s4)c3C2)nc1C(=O)O [Compound 316a, 6-(8-(benzo[d]thiazol-2-ylcarbamoyl)-3,4-dihydroisoquinolin-2(1H)-yl)-3-(3-(((1s,4r)-4-(3-(4-(3-(2,4-dioxotetrahydropyrimidin-1(2H)-yl)-1-methyl-1H-indazol-6-yl)piperazin-1-yl)propyl)cyclohexyl)oxy)-2-methylphenyl)picolinic acid]
A (Ymin < 50%)	< 100 nM	A (Ymin < 50%)	< 100 nM	Cc1c(OCCCN2[C@H](C)CN(CC(=O)Nc3ccc4c(C5CCC(=O)NC5=O)nn(C)c4c3)C[C@@H]2C)cccc1-c1ccc(N2CCc3cccc(C(=O)Nc4nc5ccccc5s4)c3C2)nc1C(=O)O (stereo partly drawn) [Compound 131a, 6-[8-(1,3-benzothiazol-2-ylcarbamoyl)-3,4-dihydro-1H-isoquinolin-2-yl]-3-[3-[3-[(2R,6S)-4-[2-[[3-(2,6-dioxo-3-piperidyl)-1-methyl-indazol-6-yl]amino]-2-oxo-ethyl]-2,6-dimethyl-piperazin-1-yl]propoxy]-2-methyl-phenyl]pyridine-2-carboxylic acid]
A (Ymin < 50%)	< 100 nM			Cc1cc(OCCCC2(C)CCN(CC(=O)Nc3ccc4c(C5CCC(=O)NC5=O)nn(C)c4c3)CC2)ccc1-c1ccc(N2CCc3cccc(C(=O)Nc4nc5ccccc5s4)c3C2)nc1C(=O)O (stereo not drawn) [Compound 264, 6-[8-(1,3-benzothiazol-2-ylcarbamoyl)-3,4-dihydro-1H-isoquinolin-2-yl]-3-[4-[3-[1-[2-[[3-(2,6-dioxo-3-piperidyl)-1-methyl-indazol-6-yl]amino]-2-oxo-ethyl]-4-methyl-4-piperidyl]propoxy]-2-methyl-phenyl]pyridine-2-carboxylic acid]
B (50% ≤ Ymin < 70%)	< 100 nM			Cc1c(OCCCN2CCN(CC(=O)Nc3ccc4c(C5CCC(=O)NC5=O)nn(C)c4c3)C[C@@H]2C(F)(F)F)cccc1-c1ccc(N2CCc3cccc(C(=O)Nc4nc5ccccc5s4)c3C2)nc1C(=O)O (stereo partly drawn) [Compound 245a, 6-(8-(benzo[d]thiazol-2-ylcarbamoyl)-3,4-dihydroisoquinolin-2(1H)-yl)-3-(3-(3-((2R)-4-(2-((3-(2,6-dioxopiperidin-3-yl)-1-methyl-1H-indazol-6-yl)amino)-2-oxoethyl)-2-(trifluoromethyl)piperazin-1-yl)propoxy)-2-methylphenyl)picolinic acid]
B (50% ≤ Ymin < 70%)	100 to 1000 nM			Cc1c(OCC(F)(F)CC2CCN(CC(=O)Nc3cccc4c(C5CCC(=O)NC5=O)nn(C)c34)CC2)cccc1-c1ccc(N2CCc3cccc(C(=O)Nc4nc5ccccc5s4)c3C2)nc1C(=O)O (stereo not drawn) [Compound 170, 6-[8-(1,3-benzothiazol-2-ylcarbamoyl)-3,4-dihydro-1H-isoquinolin-2-yl]-3-[3-[3-[1-[2-[[3-(2,6-dioxo-3-piperidyl)-1-methyl-indazol-7-yl]amino]-2-oxo-ethyl]-4-piperidyl]-2,2-difluoro-propoxy]-2-methyl-phenyl]pyridine-2-carboxylic acid]
A (Ymin < 50%)	< 100 nM			Cn1nc(C2CCC(=O)NC2=O)c2ccc(N3CCN(CCC[C@H]4CC[C@H](Oc5cccc(-c6ccc(N7CCc8cccc(C(=O)Nc9nc%10ccccc%10s9)c8C7)nc6C(=O)O)c5C(F)(F)F)CC4)CC3)cc21 (stereo partly drawn) [Compound 328a, 6-(8-(benzo[d]thiazol-2-ylcarbamoyl)-3,4-dihydroisoquinolin-2(1H)-yl)-3-(3-(((1s,4r)-4-(3-(4-(3-(2,6-dioxopiperidin-3-yl)-1-methyl-1H-indazol-6-yl)piperazin-1-yl)propyl)cyclohexyl)oxy)-2-(trifluoromethyl)phenyl)picolinic acid]
A (Ymin < 50%)	< 100 nM			Cc1cc(OCC[C@@H](C)C2CCN(CC(=O)Nc3ccc4c(C5CCC(=O)NC5=O)nn(C)c4c3)CC2)ccc1-c1ccc(N2CCc3cccc(C(=O)Nc4nc5ccccc5s4)c3C2)nc1C(=O)O (single isomer, unassigned) [Compound 266a]
A (Ymin < 50%)	< 100 nM			Cc1c(OCCN2CCN(CC3CCN(c4ccc5c(C6CCC(=O)NC6=O)nn(C)c5c4)CC3)CC2)cccc1-c1ccc(N2CCc3cccc(C(=O)Nc4nc5ccccc5s4)c3C2)nc1C(=O)O (stereo not drawn) [Compound 198, 6-(8-(benzo[d]thiazol-2-ylcarbamoyl)-3,4-dihydroisoquinolin-2(1H)-yl)-3-(3-(2-(4-((1-(3-(2,6-dioxopiperidin-3-yl)-1-methyl-1H-indazol-6-yl)piperidin-4-yl)methyl)piperazin-1-yl)ethoxy)-2-methylphenyl)picolinic acid]
